Measured values taken from patent US11548870B2, “Compounds useful as inhibitors of helios protein” (Bristol-Myers Squibb Company, priority 2019, dated 2023).
“And” between values parts separate entries of the source, which are not always exact repeats. Equal entries are not always repeated.

Columns and labels:
Helios = molecular target: T1, Helios (Homo sapiens, UniProt Q96SW2+Q9UKS7); assay: Helios Cellular Degradation Assay (flow cytometry, Helios-PE antibody staining, 72 h); format: cell-based; details: Jurkat cells, 72 h incubation, flow cytometry; for Dmax: Jurkat, read-out: Helios Dmax
T1 construct: fluorescently labelled antibodies against Helios and Ikaros; endogenous in cells; host or cells: Jurkat cells
T1 sequence (Q9UKS7 whole entry): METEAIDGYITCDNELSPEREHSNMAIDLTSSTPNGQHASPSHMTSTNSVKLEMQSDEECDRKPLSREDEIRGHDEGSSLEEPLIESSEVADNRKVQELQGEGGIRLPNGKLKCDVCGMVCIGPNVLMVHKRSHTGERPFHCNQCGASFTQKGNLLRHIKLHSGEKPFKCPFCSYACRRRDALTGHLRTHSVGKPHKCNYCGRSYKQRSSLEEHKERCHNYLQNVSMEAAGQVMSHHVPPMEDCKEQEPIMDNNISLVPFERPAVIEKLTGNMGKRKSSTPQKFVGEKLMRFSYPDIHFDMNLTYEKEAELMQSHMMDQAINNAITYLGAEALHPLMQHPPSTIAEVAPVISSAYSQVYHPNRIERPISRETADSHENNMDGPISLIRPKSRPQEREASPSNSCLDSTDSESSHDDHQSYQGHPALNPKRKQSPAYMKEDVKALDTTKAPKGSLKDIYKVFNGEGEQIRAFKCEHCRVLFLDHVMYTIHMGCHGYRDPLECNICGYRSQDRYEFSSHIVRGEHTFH
T1 sequence (Q96SW2 whole entry): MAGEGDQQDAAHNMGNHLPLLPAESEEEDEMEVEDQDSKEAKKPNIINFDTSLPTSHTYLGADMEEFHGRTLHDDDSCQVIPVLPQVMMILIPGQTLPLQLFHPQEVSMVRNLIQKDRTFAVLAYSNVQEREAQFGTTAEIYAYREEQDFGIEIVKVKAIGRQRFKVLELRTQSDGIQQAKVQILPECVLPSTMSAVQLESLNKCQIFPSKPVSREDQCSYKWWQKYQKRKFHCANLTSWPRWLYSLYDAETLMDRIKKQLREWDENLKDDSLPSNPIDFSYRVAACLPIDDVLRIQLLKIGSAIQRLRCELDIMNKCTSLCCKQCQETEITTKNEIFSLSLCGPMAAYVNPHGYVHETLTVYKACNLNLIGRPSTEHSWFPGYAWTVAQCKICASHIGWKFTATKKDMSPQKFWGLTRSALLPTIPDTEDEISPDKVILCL
T1 sequence (Q16531 whole entry partner): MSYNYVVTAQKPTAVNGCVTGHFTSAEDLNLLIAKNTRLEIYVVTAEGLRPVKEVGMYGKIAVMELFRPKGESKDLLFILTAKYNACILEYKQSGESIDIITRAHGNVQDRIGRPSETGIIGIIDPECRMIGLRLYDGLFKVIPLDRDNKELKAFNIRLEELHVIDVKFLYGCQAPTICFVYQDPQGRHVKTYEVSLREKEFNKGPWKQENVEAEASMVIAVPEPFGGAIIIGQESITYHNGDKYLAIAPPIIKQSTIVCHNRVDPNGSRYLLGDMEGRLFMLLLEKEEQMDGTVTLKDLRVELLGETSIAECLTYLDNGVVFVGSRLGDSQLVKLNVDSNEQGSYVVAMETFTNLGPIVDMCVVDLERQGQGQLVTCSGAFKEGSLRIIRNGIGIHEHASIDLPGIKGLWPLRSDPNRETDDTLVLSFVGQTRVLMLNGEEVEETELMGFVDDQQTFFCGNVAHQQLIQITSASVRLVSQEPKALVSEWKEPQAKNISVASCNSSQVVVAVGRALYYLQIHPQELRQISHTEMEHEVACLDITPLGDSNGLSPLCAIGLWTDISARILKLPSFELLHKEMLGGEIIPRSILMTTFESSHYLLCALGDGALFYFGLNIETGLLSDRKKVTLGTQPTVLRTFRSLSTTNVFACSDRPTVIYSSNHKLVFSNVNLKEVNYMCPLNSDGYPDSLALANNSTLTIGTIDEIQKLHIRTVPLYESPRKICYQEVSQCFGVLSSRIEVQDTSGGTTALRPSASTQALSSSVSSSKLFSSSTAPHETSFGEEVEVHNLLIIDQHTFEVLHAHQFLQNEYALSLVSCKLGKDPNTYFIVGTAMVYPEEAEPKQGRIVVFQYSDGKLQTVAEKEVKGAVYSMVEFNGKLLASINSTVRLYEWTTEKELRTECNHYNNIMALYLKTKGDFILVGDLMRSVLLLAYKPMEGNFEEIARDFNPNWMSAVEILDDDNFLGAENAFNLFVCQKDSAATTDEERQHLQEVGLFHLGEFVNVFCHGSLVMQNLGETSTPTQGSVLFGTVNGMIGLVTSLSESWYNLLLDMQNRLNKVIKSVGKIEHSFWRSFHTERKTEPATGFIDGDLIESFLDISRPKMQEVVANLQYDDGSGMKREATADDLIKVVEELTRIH
How it was run: (§1)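 Flow cytometry of fixed, permeabilized Jurkat cells stained with anti-Helios-PE and anti-Ikaros-Alexa488 (1 h, room temperature) measured remaining protein. Treatment lasted 72 h at 37 °C, 5% CO2, at 80,000 cells/well in RPMI with 10% FBS.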

Ikaros = molecular target: T2, Ikaros (Homo sapiens, UniProt Q13422); assay: Helios Cellular Degradation Assay, Ikaros readout (flow cytometry, Ikaros-Alexa488 antibody staining, 72 h); format: cell-based; details: Jurkat cells, 72 h incubation, flow cytometry; for Dmax: Jurkat, read-out: Ikaros Dmax
T2 construct: fluorescently labelled antibodies against Helios and Ikaros; endogenous in cells; host or cells: Jurkat cells
T2 sequence (Q96SW2 whole entry partner): as the sequence (Q96SW2 whole entry) above
T2 sequence (Q16531 whole entry partner): as the sequence (Q16531 whole entry partner) above
T2 sequence (Q13422 whole entry): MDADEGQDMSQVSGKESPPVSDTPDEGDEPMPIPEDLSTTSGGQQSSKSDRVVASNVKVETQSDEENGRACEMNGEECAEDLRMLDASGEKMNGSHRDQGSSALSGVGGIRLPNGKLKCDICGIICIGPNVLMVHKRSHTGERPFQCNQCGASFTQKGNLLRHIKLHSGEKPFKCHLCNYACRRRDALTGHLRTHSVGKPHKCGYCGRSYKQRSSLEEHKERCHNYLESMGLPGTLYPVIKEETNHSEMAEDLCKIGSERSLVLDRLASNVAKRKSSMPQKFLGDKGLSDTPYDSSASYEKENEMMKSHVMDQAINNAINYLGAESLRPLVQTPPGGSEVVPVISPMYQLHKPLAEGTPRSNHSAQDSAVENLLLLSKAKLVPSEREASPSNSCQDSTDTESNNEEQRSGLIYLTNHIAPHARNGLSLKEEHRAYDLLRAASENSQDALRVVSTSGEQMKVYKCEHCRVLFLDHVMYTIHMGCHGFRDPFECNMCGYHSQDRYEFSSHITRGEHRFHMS
How it was run: as §1

| SMILES | DC50 (Helios) [nM] | Dmax (Helios) [%] | DC50 (Ikaros) [nM] | Dmax (Ikaros) [%] | Helios Dmax (Helios) [%] | Ikaros Dmax (Ikaros) |
| --- | --- | --- | --- | --- | --- | --- |
| CN(Cc1ccnc(-c2ccc3c(c2)CN(C2CCC(=O)NC2=O)C3=O)c1)CC1CCCC1 (centres unmarked) [Example 175, 3-(5-(4-(((cyclopentylmethyl)(methyl)amino)methyl)pyridin-2-yl)-1-oxoisoindolin-2-yl) piperidine-2,6-dione] | 78 | 78 | > 10000 | 7 | – | – |
| CN(Cc1ccnc(-c2ccc3c(c2)CN(C2CCC(=O)NC2=O)C3=O)c1)Cc1nccs1 (centres unmarked) [Example 176, 3-(5-(4-((methyl(thiazol-2-ylmethyl)amino)methyl)pyridin-2-yl)-1-oxoisoindolin-2-yl)piperidine-2,6-dione] | 1120 | 65 | > 10000 | 30 | – | – |
| CN(Cc1ccc(-n2ccnc2)cc1)Cc1ccnc(-c2ccc3c(c2)CN(C2CCC(=O)NC2=O)C3=O)c1 (centres unmarked) [Example 177, 3-(5-(4-(((4-(1H-imidazol-1-yl)benzyl)(methyl)amino)methyl)pyridin-2-yl)-1-oxoisoindolin-2-yl)piperidine-2,6-dione] | > 10000 | 43 | > 10000 | 12 | – | – |
| CC(C)CN(C)Cc1ccnc(-c2ccc3c(c2)CN(C2CCC(=O)NC2=O)C3=O)c1 (centres unmarked) [Example 179, 3-(5-(4-((isobutyl(methyl)amino)methyl)pyridin-2-yl)-1-oxoisoindolin-2-yl)piperidine-2,6-dione] | 212 | 78 | > 10000 | 4 | – | – |
| CC(C)CCN(C)Cc1ccnc(-c2ccc3c(c2)CN(C2CCC(=O)NC2=O)C3=O)c1 (centres unmarked) [Example 180, 3-(5-(4-((isopentyl(methyl)amino)methyl)pyridin-2-yl)-1-oxoisoindolin-2-yl)piperidine-2,6-dione] | 352 | 87 | > 10000 | 13 | – | – |
| CC(CO)N(C)Cc1ccnc(-c2ccc3c(c2)CN(C2CCC(=O)NC2=O)C3=O)c1 (centres unmarked) [Example 181, 3-(5-(4-(((1-hydroxypropan-2-yl)(methyl)amino)methyl)pyridin-2-yl)-1-oxoisoindolin-2-yl) piperidine-2,6-dione] | 499 | 83 | > 10000 | 10 | – | – |
| CN(Cc1ccnc(-c2ccc3c(c2)CN(C2CCC(=O)NC2=O)C3=O)c1)CC1CCOC1 (centres unmarked) [Example 182, 3-(5-(4-((methyl((tetrahydrofuran-3-yl)methyl)amino)methyl)pyridin-2-yl)-1-oxoisoindolin-2-yl)piperidine-2,6-dione] | 316 | 79 | > 10000 | 23 | – | – |
| CN(Cc1ccnc(-c2ccc3c(c2)CN(C2CCC(=O)NC2=O)C3=O)c1)Cc1cnc2ccccc2n1 (centres unmarked) [Example 183, 3-(5-(4-((methyl (quinoxalin-2-ylmethyl)amino)methyl)pyridin-2-yl)-1-oxoisoindolin-2-yl)piperidine-2,6-dione] | 167 | 76 | > 10000 | 10 | – | – |
| CN(CCC(F)(F)F)Cc1ccnc(-c2ccc3c(c2)CN(C2CCC(=O)NC2=O)C3=O)c1 (centres unmarked) [Example 184, 3-(5-(4-((methyl(3,3,3-trifluoropropyl)amino)methyl)pyridin-2-yl)-1-oxoisoindolin-2-yl)piperidine-2,6-dione] | 6050 | 54 | > 10000 | 14 | – | – |
| CC(CCO)N(C)Cc1ccnc(-c2ccc3c(c2)CN(C2CCC(=O)NC2=O)C3=O)c1 (centres unmarked) [Example 185, 3-(5-(4-(((4-hydroxybutan-2-yl)(methyl)amino)methyl)pyridin-2-yl)-1-oxoisoindolin-2-yl)piperidine-2,6-dione] | 421 | 62 | > 10000 | 2 | – | – |
| O=C1CCC(N2Cc3cc(-c4cc(CN5CC(c6ccccc6)C5)c(Cl)cn4)ccc3C2=O)C(=O)N1 (centres unmarked) [Example 186, 3-(5-(5-chloro-4-((3-phenylazetidin-1-yl)methyl)pyridin-2-yl)-1-oxoisoindolin-2-yl)piperidine-2,6-dione] | 230 | 62 | > 10000 | 8 | – | – |
| O=C1CCC(N2Cc3cc(-c4cc(CN5CCC5c5ccccc5)c(Cl)cn4)ccc3C2=O)C(=O)N1 (centres unmarked) [Example 187, 3-(5-(5-chloro-4-((2-phenylazetidin-1-yl)methyl)pyridin-2-yl)-1-oxoisoindolin-2-yl)piperidine-2,6-dione] | 24 | 84 | > 10000 | 6 | – | – |
| O=C1CCC(N2Cc3cc(-c4cc(CN5CC(c6ccccc6)C5)c(F)cn4)ccc3C2=O)C(=O)N1 (centres unmarked) [Example 188, 3-(5-(5-fluoro-4-((3-phenylazetidin-1-yl)methyl)pyridin-2-yl)-1-oxoisoindolin-2-yl) piperidine-2,6-dione] | 27 | 76 | – | 16 | – | – |
| O=C1CCC(N2Cc3cc(-c4cc(CN5CCC5c5ccccc5)c(F)cn4)ccc3C2=O)C(=O)N1 (centres unmarked) [Example 189, 3-(5-(5-fluoro-4-((2-phenylazetidin-1-yl)methyl)pyridin-2-yl)-1-oxoisoindolin-2-yl)piperidine-2,6-dione] | 11 | 80 | > 10000 | 16 | – | – |
| O=C1CCC(N2Cc3cc(-c4cc(CN5CC(c6cccnc6)C5)c(F)cn4)ccc3C2=O)C(=O)N1 (centres unmarked) [Example 190, 3-(5-(5-fluoro-4-((3-(pyridin-3-yl)azetidin-1-yl)methyl)pyridin-2-yl)-1-oxoisoindolin-2-yl) piperidine-2,6-dione] | 76 | 71 | > 10000 | 16 | – | – |
| O=C1CCC(N2Cc3cc(-c4nccc(CN5CC(c6ccccc6)C5)c4F)ccc3C2=O)C(=O)N1 (centres unmarked) [Example 191, 3-(5-(3-fluoro-4-((3-phenylazetidin-1-yl)methyl)pyridin-2-yl)-1-oxoisoindolin-2-yl) piperidine-2,6-dione] | 3200 | 52 | > 10000 | 3 | – | – |
| O=C1CCC(N2Cc3cc(-c4nccc(CN5CC(c6cccnc6)C5)c4F)ccc3C2=O)C(=O)N1 (centres unmarked) [Example 192, 3-(5-(3-fluoro-4-((3-(pyridin-3-yl)azetidin-1-yl)methyl)pyridin-2-yl)-1-oxoisoindolin-2-yl)piperidine-2,6-dione] | > 10000 | 41 | > 10000 | 16 | – | – |
| O=C1CCC(N2Cc3cc(-c4nccc(CN5CCC5c5ccccc5)c4F)ccc3C2=O)C(=O)N1 (centres unmarked) [Example 193, 3-(5-(3-fluoro-4-((2-phenylazetidin-1-yl)methyl)pyridin-2-yl)-1-oxoisoindolin-2-yl) piperidine-2,6-dione] | 120 | 60 | > 10000 | 14 | – | – |
| Cc1cc2c(cc1-c1cc(CN(C)C)ccn1)CN(C1CCC(=O)NC1=O)C2=O (centres unmarked) [Example 194, 3-(5-(4-((dimethylamino)methyl)pyridin-2-yl)-6-methyl-1-oxoisoindolin-2-yl)piperidine-2,6-dione] | > 10000 | 5.16 | > 10000 | – | 5.2 | 0.04% and 3% |
| COC1(C)CN(Cc2ccnc(-c3ccc4c(c3)CN(C3CCC(=O)NC3=O)C4=O)c2)C1 (centres unmarked) [Example 196, 3-(5-(4-((3-methoxy-3-methylazetidin-1-yl)methyl)pyridin-2-yl)-1-oxoisoindolin-2-yl)piperidine-2,6-dione] | 45 | 78 | > 10000 | 7 | – | – |
| COC1CN(Cc2ccnc(-c3ccc4c(c3)CN(C3CCC(=O)NC3=O)C4=O)c2)C1 (centres unmarked) [Example 197, 3-(5-(4-((3-methoxyazetidin-1-yl)methyl)pyridin-2-yl)-1-oxoisoindolin-2-yl)piperidine-2,6-dione] | 42 | 75 | > 10000 | 20 | – | – |
| CCOC1CN(Cc2ccnc(-c3ccc4c(c3)CN(C3CCC(=O)NC3=O)C4=O)c2)C1 (centres unmarked) [Example 198, 3-(5-(4-((3-ethoxyazetidin-1-yl)methyl)pyridin-2-yl)-1-oxoisoindolin-2-yl) piperidine-2,6-dione] | 42 | 75 | > 10000 | 18 | – | – |
| Cc1ccc(C2CCN(Cc3ccnc(-c4ccc5c(c4)CN(C4CCC(=O)NC4=O)C5=O)c3)CC2)cc1 (centres unmarked) [Example 199, 3-(1-oxo-5-(4-((4-(p-tolyl)piperidin-1-yl)methyl)pyridin-2-yl)isoindolin-2-yl)piperidine-2,6-dione] | 130 | 60 | > 10000 | 3 | – | – |
| CN(C)C(=O)C1CN(Cc2ccnc(-c3ccc4c(c3)CN(C3CCC(=O)NC3=O)C4=O)c2)C1 (centres unmarked) [Example 202, 1-((2-(2-(2,6-dioxopiperidin-3-yl)-1-oxoisoindolin-5-yl)pyridin-4-yl)methyl)-N,N-dimethylazetidine-3-carboxamide] | 190 | 69 | > 10000 | 22 | – | – |
| O=C1CCC(N2Cc3cc(-c4cc(CN5CC(c6cccnc6)C5)ccn4)ccc3C2=O)C(=O)N1 (centres unmarked) [Example 203, 3-(1-oxo-5-(4-((3-(pyridin-3-yl)azetidin-1-yl)methyl)pyridin-2-yl)isoindolin-2-yl)piperidine-2,6-dione] | 440 | 69 | > 10000 | 20 | – | – |
| NC(=O)C1CCN1Cc1ccnc(-c2ccc3c(c2)CN(C2CCC(=O)NC2=O)C3=O)c1 (centres unmarked) [Example 206, 1-((2-(2-(2,6-dioxopiperidin-3-yl)-1-oxoisoindolin-5-yl)pyridin-4-yl)methyl)azetidine-2-carboxamide] | 740 | 66 | > 10000 | 9 | – | – |
